{
  "source": "patent US10993938B2",
  "about": "(priority 2017, dated 2021)",
  "key": {"[1]": {"system": "HIV", "assay": "microbe, parasite or virus in culture", "format": "cell-based", "details": "Human immunodeficiency virus 1, read-out: HIV (EC50) μM"}, "[2]": {"system": "H7N9", "assay": "microbe, parasite or virus in culture", "format": "cell-based", "details": "Influenza A virus, H7N9, read-out: H7N9 (EC50) μM"}, "[3]": {"system": "EV71", "assay": "Virus inhibition activity assay based on cytopathic effects (neutral red), EV71", "format": "cell-based", "details": "Enterovirus A, EV71, read-out: EV71 (EC50) μM"}, "[4]": {"system": "HSV", "assay": "Virus inhibition activity assay based on cytopathic effects (neutral red), HSV", "format": "cell-based", "details": "read-out: HSV (EC50) μM"}, "[5]": {"system": "H1N1", "assay": "microbe, parasite or virus in culture", "format": "cell-based", "details": "Influenza A virus, H1N1, read-out: H1N1 (EC50) μM"}, "[6]": {"system": "RSV", "assay": "Virus inhibition activity assay based on cytopathic effects (neutral red), RSV", "format": "cell-based", "details": "human respiratory syncytial virus, read-out: RSV (EC50) μM"}, "[7]": {"assay": "50% toxic concentration on cell (TC50), neutral red"}, "[8]": {"system": "CoxB3", "assay": "Virus inhibition activity assay based on cytopathic effects (neutral red), CoxB3", "format": "cell-based", "details": "read-out: CoxB3 (EC50) μM"}},
  "data": [
    {"smiles": "COC1C(=O)N(Cc2ccccc2)c2ccc(Cl)cc2C1(O)c1ccccc1", "note": "(centres unmarked) [Example 29]", "values": [
      {"measurement": "EC50", "setting": "[1]", "value": "0.05 to 5", "unit": "µM"},
      {"measurement": "EC50", "setting": "[2]", "value": "0.05 to 5", "unit": "µM"},
      {"measurement": "EC50", "setting": "[3]", "value": "5 to 50", "unit": "µM"},
      {"measurement": "EC50", "setting": "[4]", "value": "50 to 120", "unit": "µM"},
      {"measurement": "EC50", "setting": "[5]", "value": "5 to 50", "unit": "µM"},
      {"measurement": "EC50", "setting": "[6]", "value": "0.05 to 5", "unit": "µM"},
      {"measurement": "CC50", "setting": "[7]", "value": "50 to 100", "unit": "µM"},
      {"measurement": "EC50", "setting": "[8]", "value": "0.05 to 5", "unit": "µM"}
    ]}
  ]
}
